The format of the data set is in vivo, Sprague-Dawley rats. Particulars: compared with enantiomer E4 and flocoumafen. On the procedure:
The configurational stereoisomers of flocoumafen are separated by high-pressure liquid chromatography using a LUX® Cellulose-4 chiral column (00F-4490-B0, Phenomenex, Le Pecq, France) as stationary phase and a mixture formed from acetonitrile (A) and water comprising 0.1% by volume of formic acid (B), with an AB volume ratio of 92/8, as mobile phase with a flow rate of the liquid mobile phase in the chromatography column of 0.25 mL/minute. 1 μL of extract to be analysed at a concentration of 1 μg/mL of acetonitrile is injected. Detection is performed by tandem mass spectrometry (MS/MS) in negative electrospray ionization (ESI) mode. The temperature of the nebulizer gas is 350° C. and its flow rate is 8 L/minute. The pressure of the nebulizer gas is brought to 2700 hPa. In particular, the MRM (“Multiple Reaction Monitoring”) transitions m/z 541.1→382.1 and m/z 541.1→161, corresponding to the flocoumafen signal, are analysed.
About 0.525 g (±0.025 g) of rat liver is weighed out accurately and placed in a 50 mL polypropylene tube. 10 mL of acetone are added and the suspension is homogenized using an Ultra-Turrax® homogenizer/disperser for a time of about 30 seconds. The homogenizer/disperser shaft is rinsed with hot water and then twice with 20 mL of acetone in a polypropylene tube. The homogenate is centrifuged for 5 minutes at a centrifugation speed of 3000 rpm (revolutions per minute). […]

We go through one molecule from patent US20180362488A1, “STEREOISOMER OF FLOCOUMAFEN, COMPOSITION AND RODENTICIDE BAIT COMPRISING SAME, AND METHOD FOR CONTROLLING TARGET RODENT PESTS” (priority 2015, published 2018).

Regarding `O=c1oc2ccccc2c(O)c1C1CC(c2ccc(OCc3ccc(C(F)(F)F)cc3)cc2)Cc2ccccc21` (single isomer, unassigned) [Enantiomer E2], the “Persistence in the liver of the male and female rats” value is “lower than the persistence of enantiomer E4 of said diastereoisomer D1,4 and lower than the persistence of flocoumafen”.
